Measurements published in the supplement of paper PMC11208160.

Test: recombinant UMI read abundance after kanamycin selection (control-corrected) (log10(CPM+1)); higher = more efficient recombination; extreme values may be limits of the assay; sequences stand for … in AGTGCAGAGAAAATCGGCCAGTTTTCTCTGCCTGCAGTCCGCATGCCGTGGGACCCCTTGGGTTCTAACCTGTTGCCTAGATTTATGCAGCGGACTGCCTTTCTCCCAAAGTGATAAACCGG…AGGTTGGTTTCACT; site = the 11-nt donor
Summary of the method: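 Pooled Escherichia coli screen of donor and donor-binding-loop pairs for the IS621 bridge recombinase. Each pair sits with a 12-nt UMI on a plasmid carrying a promoterless kanamycin gene. The library was co-electroporated with a target plasmid encoding a fixed target and T7-inducible recombinase, then plated with IPTG (0.07 mM) plus kanamycin, or unselected, each in two replicates. Recombinant UMIs were PCR-amplified across the donor–target junction and sequenced. Counts became CPM, averaged over replicates, scaled by control-derived factors and reported as log10(CPM+1).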
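Note: IS621 bridge recombinase in Escherichia coli cells against a fixed T5 target plasmid.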

| Sequence | recombinant UMI read abundance (log10) |
| --- | --- |
| CGTGAACCATGGACCGGTTTTCCCGGTAATCCGTATTTGAT (site CGAGAACCTAT) | 0.0201 |
| CGTGAACCATGGACCGGTTTTCCCGGTAATCCGTATTTGAT (site CGCGAACCTAT) | 0 |
| CGTGAACCATGGACCGGTTTTCCCGGTAATCCGTATTTGAT (site CGGGAACCTAT) | 0 |
| CGTGAACCATGGACCGGTTTTCCCGGTAATCCGTATTTGAT (site CGTGAACCTAT) | 0.0133 |
| CGTGACTCATGGACCGGTTTTCCCGGTAATCCGTATTTGCG (site CGTGACTCTCG) | 2.74 |
| CGTGACTCATGGACCGGTTTTCCCGGTAATCCGTATTTGTA (site CGTGACTCTTA) | 3.02 |
| CGTGAGTCATGGACCGGTTTTCCCGGTAATCCGTATTTGCC (site CGAGAGTCTGG) | 1.79 |
| CGTGAGTCATGGACCGGTTTTCCCGGTAATCCGTATTTGCC (site CGCGAGTCTGG) | 0 |
| CGTGAGTCATGGACCGGTTTTCCCGGTAATCCGTATTTGCC (site CGGGAGTCTGG) | 0.694 |
| CGTGAGTCATGGACCGGTTTTCCCGGTAATCCGTATTTGCC (site CGTGAGTCTGG) | 1.97 |
| CGTGAGTCATGGACCGGTTTTCCCGGTAATCCGTATTTGCG (site CGTGAGTCTCG) | 2.58 |
| CGTGCGGCATGGACCGGTTTTCCCGGTAATCCGTATTTGGA (site CGTGCGGCTTC) | 0.167 |
| CGTGCGTCATGGACCGGTTTTCCCGGTAATCCGTATTTGTA (site CGTGCGTCTTA) | 2.34 |
| CGTGGAACATGGACCGGTTTTCCCGGTAATCCGTATTTGGT (site CGTGGAACTAA) | 0.427 |
| CGTGGAACATGGACCGGTTTTCCCGGTAATCCGTATTTGGT (site CGTGGAACTAC) | 1.33 |
| CGTGGAACATGGACCGGTTTTCCCGGTAATCCGTATTTGGT (site CGTGGAACTAG) | 0 |
| CGTGGAACATGGACCGGTTTTCCCGGTAATCCGTATTTGGT (site CGTGGAACTAT) | 1.26 |
| CGTGGCACATGGACCGGTTTTCCCGGTAATCCGTATTTGTT (site CGTGGAACTAA) | 0.00865 |
| CGTGGCACATGGACCGGTTTTCCCGGTAATCCGTATTTGTT (site CGTGGCACTAA) | 0.862 |

| Sequence | recombinant UMI read abundance (log10) |
| --- | --- |
| CGTGGCACATGGACCGGTTTTCCCGGTAATCCGTATTTGTT (site CGTGGGACTAA) | 0.00775 |
| CGTGGCACATGGACCGGTTTTCCCGGTAATCCGTATTTGTT (site CGTGGTACTAA) | 0.0209 |
| CGTGTAACATGGACCGGTTTTCCCGGTAATCCGTATTTGTT (site CGTGAAACTAA) | 0.00395 |
| CGTGTAACATGGACCGGTTTTCCCGGTAATCCGTATTTGTT (site CGTGCAACTAA) | 0.015 |
| CGTGTAACATGGACCGGTTTTCCCGGTAATCCGTATTTGTT (site CGTGGAACTAA) | 0.0109 |
| CGTGTAACATGGACCGGTTTTCCCGGTAATCCGTATTTGTT (site CGTGTAACTAA) | 0.811 |
| CGTTAAGCATGGACCGGTTTTCCCGGTAATCCGTATTTGGC (site CGTTAAGCTGC) | 1.73 |
| CGTTACCCATGGACCGGTTTTCCCGGTAATCCGTATTTGCG (site CGTTACCCTCG) | 0.477 |
| CGTTAGACATGGACCGGTTTTCCCGGTAATCCGTATTTGAT (site CGTTAGACTAT) | 1.58 |
| CGTTAGACATGGACCGGTTTTCCCGGTAATCCGTATTTGAT (site CGTTAGACTCT) | 0.00897 |
| CGTTAGACATGGACCGGTTTTCCCGGTAATCCGTATTTGAT (site CGTTAGACTGT) | 0 |
| CGTTAGACATGGACCGGTTTTCCCGGTAATCCGTATTTGAT (site CGTTAGACTTT) | 0.0167 |
| CGTTATCCATGGACCGGTTTTCCCGGTAATCCGTATTTGCG (site CGTTATCCTCG) | 0.766 |
| CGTTCCACATGGACCGGTTTTCCCGGTAATCCGTATTTGTG (site CGTTCCACTCA) | 0.0103 |
| CGTTGACCATGGACCGGTTTTCCCGGTAATCCGTATTTGGA (site CGTTGACCTTC) | 0.0127 |
| CGTTGATCATGGACCGGTTTTCCCGGTAATCCGTATTTGCT (site CGATCATCTAG) | 0.00695 |
| CGTTGATCATGGACCGGTTTTCCCGGTAATCCGTATTTGCT (site CGTTGATCTAG) | 2.78 |
| CGTTGGTCATGGACCGGTTTTCCCGGTAATCCGTATTTGCA (site CGTTGGTCTTG) | 1.29 |
